target: T1, ENaC (Epithelial Sodium Channel) (Mus musculus, UniProt Q61180+Q9WU38+Q9WU39); test: Ussing chamber assay: short circuit current (I_sc) in M-1 cells, inhibition of the amiloride sensitive I_SC; type: cell-based; conditions: Mouse kidney M-1 cells on transwell filters, compounds added to the apical solution, 37° C., voltage-clamp mode
T1 construct: Mouse kidney M-1 cells were cultivated in DMEM containing 5% FCS and 5 μM dexamethasone; endogenous in cells; host or cells: mouse kidney M-1 cells
T1 sequence (Q61180 1-699): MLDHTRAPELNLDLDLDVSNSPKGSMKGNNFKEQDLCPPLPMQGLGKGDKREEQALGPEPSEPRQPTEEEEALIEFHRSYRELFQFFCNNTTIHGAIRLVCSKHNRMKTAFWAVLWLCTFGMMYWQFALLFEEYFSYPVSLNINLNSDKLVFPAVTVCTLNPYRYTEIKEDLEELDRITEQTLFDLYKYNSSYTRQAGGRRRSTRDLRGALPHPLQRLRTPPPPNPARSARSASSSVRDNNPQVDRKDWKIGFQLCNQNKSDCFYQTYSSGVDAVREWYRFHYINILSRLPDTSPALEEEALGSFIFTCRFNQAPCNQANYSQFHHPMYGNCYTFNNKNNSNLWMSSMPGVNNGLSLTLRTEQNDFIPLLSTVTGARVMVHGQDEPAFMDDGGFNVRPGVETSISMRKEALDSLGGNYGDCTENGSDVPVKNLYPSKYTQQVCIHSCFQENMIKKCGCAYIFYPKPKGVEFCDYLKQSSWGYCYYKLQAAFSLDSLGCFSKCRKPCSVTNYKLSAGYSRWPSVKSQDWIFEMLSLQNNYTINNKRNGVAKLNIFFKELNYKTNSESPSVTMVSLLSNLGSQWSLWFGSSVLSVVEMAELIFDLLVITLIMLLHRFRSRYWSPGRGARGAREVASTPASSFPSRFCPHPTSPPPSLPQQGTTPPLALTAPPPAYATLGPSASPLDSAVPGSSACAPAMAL
T1 sequence (Q9WU38 1-638): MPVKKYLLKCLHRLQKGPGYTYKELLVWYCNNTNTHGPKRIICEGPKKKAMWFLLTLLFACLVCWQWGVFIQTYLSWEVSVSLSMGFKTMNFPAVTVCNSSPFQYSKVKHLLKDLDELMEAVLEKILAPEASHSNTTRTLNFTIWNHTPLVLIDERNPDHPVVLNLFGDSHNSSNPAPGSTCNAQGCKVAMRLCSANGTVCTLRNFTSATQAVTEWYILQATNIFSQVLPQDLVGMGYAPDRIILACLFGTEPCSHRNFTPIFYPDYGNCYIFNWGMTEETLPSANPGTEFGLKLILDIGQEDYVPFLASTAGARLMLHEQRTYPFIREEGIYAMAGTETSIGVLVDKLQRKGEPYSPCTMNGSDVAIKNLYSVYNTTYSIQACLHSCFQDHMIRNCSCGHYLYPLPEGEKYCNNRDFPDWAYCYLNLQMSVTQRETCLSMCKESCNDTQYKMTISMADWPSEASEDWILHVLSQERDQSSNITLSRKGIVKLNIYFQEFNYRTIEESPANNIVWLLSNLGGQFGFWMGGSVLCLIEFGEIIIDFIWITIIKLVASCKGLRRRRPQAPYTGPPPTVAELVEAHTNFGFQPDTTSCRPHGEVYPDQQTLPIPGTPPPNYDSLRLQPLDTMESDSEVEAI
T1 sequence (Q9WU39 1-655): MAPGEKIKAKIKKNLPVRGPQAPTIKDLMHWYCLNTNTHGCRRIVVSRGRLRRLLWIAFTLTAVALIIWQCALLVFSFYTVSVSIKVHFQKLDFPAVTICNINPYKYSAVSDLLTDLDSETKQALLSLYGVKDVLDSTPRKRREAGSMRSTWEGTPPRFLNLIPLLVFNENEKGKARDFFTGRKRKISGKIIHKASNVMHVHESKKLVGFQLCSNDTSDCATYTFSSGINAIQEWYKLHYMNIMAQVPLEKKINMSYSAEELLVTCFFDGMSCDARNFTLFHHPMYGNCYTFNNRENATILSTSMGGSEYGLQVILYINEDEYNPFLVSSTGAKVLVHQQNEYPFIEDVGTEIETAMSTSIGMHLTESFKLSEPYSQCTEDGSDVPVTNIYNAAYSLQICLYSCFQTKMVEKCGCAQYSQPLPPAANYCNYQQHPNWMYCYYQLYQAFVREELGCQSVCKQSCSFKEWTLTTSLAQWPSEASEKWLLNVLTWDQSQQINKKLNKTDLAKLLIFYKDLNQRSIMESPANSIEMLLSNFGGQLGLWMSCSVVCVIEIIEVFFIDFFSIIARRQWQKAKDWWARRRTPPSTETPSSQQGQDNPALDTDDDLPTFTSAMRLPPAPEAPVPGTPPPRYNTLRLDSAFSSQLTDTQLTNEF
Method: Mouse kidney M-1 cells were cultivated in DMEM containing 5% FCS and 5 μM dexamethasone for 10 to 12 days on polyester transwell filters. Filters were inserted into a teflon-coated well-plate which fit into the in-house ussing chamber system. Prior to measurement the medium of M-1 cells was replaced with Caco-2 transport buffer (Invitrogen, Germany). During measurements, the Ussing chamber temperature was kept at 37° C. Short circuit currents (I_sc) were measured in the voltage-clamp mode using an in-house built amplifier (Boehringer Ingelheim, Biberach) with the software package Lab View for data acquisition and analysis. The transepithelial electrical resistance (TEER) was determined by the application of voltage steps of ±5 mV every 5 sec. Compounds were administered at a final concentration of 3 μM or at increasing concentrations (1-3-10 μM) to the apical solution. At the end of each experiment the amiloride sensitive I_SC was measured by adding 3 μM amiloride to the apical compartment. Results are expressed as inhibition in percent of the amiloride effect or as IC50. With the example compounds given above, the following IC50 values were determined in the Ussing Chamber assay: […]

Row | IC50 | SMILES
1 | 21 nM | N/C(=N\C(=O)c1nc(Cl)c(N)nc1N)NC1CCN(Cc2ccnc(C(=O)O)c2)CC1 [Example 3.1]
2 | 3 nM | NC(=NC(=O)c1nc(Cl)c(N)nc1N)NC1CCN(Cc2ccc(CCc3cccnc3)nc2)CC1 [Example 1.4]
3 | 17 nM | NC(=NC(=O)c1nc(Cl)c(N)nc1N)NC1CCN(Cc2cscn2)CC1 [Example 1.9]
4 | 6 nM | NC(=NC(=O)c1nc(Cl)c(N)nc1N)NC1CCN(Cc2cn3ccccc3n2)CC1 [Example 1.15]
5 | 4 nM | C#Cc1cncc(CN2CCC(NC(N)=NC(=O)c3nc(Cl)c(N)nc3N)CC2)c1 [Example 1.12]
6 | 9 nM | NC(=NC(=O)c1nc(Cl)c(N)nc1N)NC1CCN(Cc2ccc(=O)n(Cc3cccnc3)c2)CC1 [Example 1.6]
7 | 31 nM | N/C(=N\C(=O)c1nc(Cl)c(N)nc1N)NC1CCN(Cc2ccc(C(=O)O)s2)CC1 [Example 3.2]
8 | 12 nM | N/C(=N\C(=O)c1nc(Cl)c(N)nc1N)NC1CCN(Cc2cncc(-c3cn(CCOCCOCCOCCO)nn3)c2)CC1 [Example 2.2]
9 | 3 nM | COC(=O)c1ccc(CN2CCC(NC(N)=NC(=O)c3nc(Cl)c(N)nc3N)CC2)s1 [Example 1.11]
10 | 5 nM | NC(=NC(=O)c1nc(Cl)c(N)nc1N)NC1CCN(Cc2ccc(Br)nc2)CC1 [Example 1.17]
11 | 18 nM | NC(=NC(=O)c1nc(Cl)c(N)nc1N)NC1CCN(Cc2cn3cc(C(=O)NCCOCCO)ccc3n2)CC1 [Example 1.3]
12 | 4 nM | COC(=O)c1cc(CN2CCC(N/C(N)=N/C(=O)c3nc(Br)c(N)nc3N)CC2)ccn1 [Example 1.19]
13 | 15 nM | NC(=NC(=O)c1nc(Cl)c(N)nc1N)NC1CCN(Cc2ccccn2)CC1 [Example 1.5]
14 | 10 nM | NC(=NC(=O)c1nc(Cl)c(N)nc1N)NC1CCN(Cc2ccnc(C(=O)N(CCO)CCO)c2)CC1 [Example 1.2]
15 | 3 nM | COC(=O)c1cc(CN2CCC(N/C(N)=N/C(=O)c3nc(Cl)c(N)nc3N)CC2)ccn1 [Example 1.1]
16 | 4 nM | NC(=NC(=O)c1nc(Cl)c(N)nc1N)NC1CCN(Cc2ccnc(C(=O)NCCOCCO)c2)CC1 [Example 1.14]
17 | 11 nM | NC(=NC(=O)c1nc(Cl)c(N)nc1N)NC1CCN(Cc2cn3cc(C(=O)NCCO)ccc3n2)CC1 [Example 1.8]
18 | 3 nM | NC(=NC(=O)c1nc(Cl)c(N)nc1N)NC1CCN(Cc2cn3cc(I)ccc3n2)CC1 [Example 1.13]
19 | 6 nM | N/C(=N\C(=O)c1nc(Cl)c(N)nc1N)NC1CCN(Cc2ccc(=O)n(Cc3cn(Cc4ccccn4)nn3)c2)CC1 [Example 2.1]
20 | 4 nM | NC(=NC(=O)c1nc(Cl)c(N)nc1N)NC1CCN(Cc2nc3ccccc3c(=O)[nH]2)CC1 [Example 1.10]
21 | 5 nM | NC(=NC(=O)c1nc(Cl)c(N)nc1N)NC1CCN(Cc2nc3ccccc3[nH]2)CC1 [Example 1.16]
22 | 16 nM | N/C(=N\C(=O)c1nc(Br)c(N)nc1N)NC1CCN(Cc2ccnc(C(=O)O)c2)CC1 [Example 4.1]
23 | 4 nM | COC(=O)c1ccc2nc(CN3CCC(NC(N)=NC(=O)c4nc(Cl)c(N)nc4N)CC3)cn2c1 [Example 1.7]
